Data taken from PubChem BioAssay AID210 (DTP/NCI, 2004).
Values joined by “and” are separate entries in the source; they are usually repeats but may differ in a detail not shown here. Equal values may be shown once. Toxic doses and inconclusive results are not listed. Rule for the calls: active = survival T/C of 150% or more; inactive = T/C below 125% in these data.

System: CD2F1 mice, ip Colon 26 adenocarcinoma, median survival T/C
Experiment: NCI In Vivo Anticancer Drug Screen. Data for tumor model Colon 26 Adenocarcinoma (intraperitoneal) in CD2F1 (CDF1) mice
Settings: endpoint: median survival time, higher = longer survival
Procedure: The antitumor activity of compounds was measured in mice bearing transplantable tumors. Survival or tumor size were measured and the results are expressed as the measurement made in the treated group (T) divided by the measurement made in the vehicle treated control group (C). The tumor model used in this assay is Colon 26 Adenocarcinoma (intraperitoneal) in CD2F1 (CDF1) mice

[1] = dose: 0.78 mg/kg/injection, schedule: Q04DX002 (ip), vehicle: Klucel (hydroxypropylcellulose) (HPC)
[2] = dose: 1.56 mg/kg/injection, schedule: Q04DX002 (ip), vehicle: Klucel (hydroxypropylcellulose) (HPC)
[3] = dose: 6.25 mg/kg/injection, schedule: Q04DX002 (ip), vehicle: Klucel (hydroxypropylcellulose) (HPC)
[4] = dose: 12.5 mg/kg/injection, schedule: Q04DX002 (ip), vehicle: Klucel (hydroxypropylcellulose) (HPC)
[5] = dose: 400.0 mg/kg/injection, schedule: Q04DX003 (ip), vehicle: saline with Tween-80

Measured: T/C

CCOC(=O)c1c[nH]c2oc(/C=N/N3CC(CN4CCOCC4)OC3=O)cc2c1=O (stereo unspecified)
inactive: dose: 12.5 mg/kg/injection, schedule: Q04DX003 (ip), vehicle: suspension in saline 97 % of control | dose: 25.0 mg/kg/injection, schedule: Q04DX003 (ip), vehicle: suspension in saline 90 % of control | dose: 50.0 mg/kg/injection, schedule: Q04DX003 (ip), vehicle: suspension in saline 96 % of control | dose: 100.0 mg/kg/injection, schedule: Q04DX003 (ip), vehicle: suspension in saline 90 % of control | dose: 200.0 mg/kg/injection, schedule: Q04DX003 (ip), vehicle: suspension in saline 101 % of control | dose: 400.0 mg/kg/injection, schedule: Q04DX003 (ip), vehicle: suspension in saline 101 % of control

S=c1nc[nH]c2nc[nH]c12
inactive: dose: 6.25 mg/kg/injection, schedule: Q04DX003 (ip), vehicle: Klucel (hydroxypropylcellulose) (HPC) 115 % of control | dose: 12.5 mg/kg/injection, schedule: Q04DX003 (ip), vehicle: Klucel (hydroxypropylcellulose) (HPC) 110 % of control | dose: 200.0 mg/kg/injection, schedule: Q04DX003 (ip), vehicle: Klucel (hydroxypropylcellulose) (HPC) 86 % of control
active: dose: 50.0 mg/kg/injection, schedule: Q04DX003 (ip), vehicle: Klucel (hydroxypropylcellulose) (HPC) 191 % of control and 252 % of control | dose: 100.0 mg/kg/injection, schedule: Q04DX003 (ip), vehicle: Klucel (hydroxypropylcellulose) (HPC) 171 % of control

COc1c(O)c2c(c3cc(C(=O)N4CCc5c4c(O)c(OC)c4[nH]c(C(=O)N6CC7CC78C6=CC(=O)c6[nH]cc(C)c68)cc54)[nH]c13)CCN2C(N)=O (stereo unspecified)
inactive: dose: 6.3 micrograms/kg/injection, schedule: Q01DX009 (ip), vehicle: saline 104 % of control | dose: 12.5 micrograms/kg/injection, schedule: Q01DX009 (ip), vehicle: saline 99 % of control | dose: 25.0 micrograms/kg/injection, schedule: Q01DX009 (ip), vehicle: saline 115 % of control | dose: 100.0 micrograms/kg/injection, schedule: Q01DX009 (ip), vehicle: saline 123 % of control
active: dose: 50.0 micrograms/kg/injection, schedule: Q01DX009 (ip), vehicle: saline 150 % of control

CC1C(=O)CCC2(C)C1CCC1CC3CC12CCC3(O)CO (stereo unspecified)
inactive: dose: 25.0 mg/kg/injection, schedule: Q04DX002 (ip), vehicle: saline + alcohol 100 % of control | dose: 50.0 mg/kg/injection, schedule: Q04DX002 (ip), vehicle: saline + alcohol 106 % of control | dose: 100.0 mg/kg/injection, schedule: Q04DX002 (ip), vehicle: saline + alcohol 92 % of control

COc1cccc2c1C(=O)c1c(O)c3c(c(O)c1C2=O)C[C@@](O)(C(C)=O)C[C@@H]3OC1CC(N(C)C)C(O)C(C)O1 (stereo partly specified)
inactive: dose: 4.5 mg/kg/injection, schedule: Q07DX002 (iv), vehicle: saline 109 % of control | dose: 5.4 mg/kg/injection, schedule: Q04DX003 (ip), vehicle: water 119 % of control | dose: 7.0 mg/kg/injection, schedule: Q07DX002 (iv), vehicle: saline 114 % of control | dose: 11.0 mg/kg/injection, schedule: Q07DX002 (iv), vehicle: saline 113 % of control | dose: 15.0 mg/kg/injection, schedule: Q04DX003 (ip), vehicle: water 88 % of control | dose: 18.0 mg/kg/injection, schedule: Q07DX002 (iv), vehicle: saline 109 % of control | dose: 27.0 mg/kg/injection, schedule: Q07DX002 (iv), vehicle: saline 108 % of control | dose: 41.0 mg/kg/injection, schedule: Q07DX002 (iv), vehicle: saline 94 % of control

COCC1OC(OC2C3=C(C(C)C)CCC3(C)/C=C3\C(CCC3(O)COC)C(C)C2O)C(O)C2OC3OC12OC3(C)C1CO1 (stereo unspecified)
inactive: [1] 105 % of control and 94 % of control | [2] 104 % of control and 106 % of control | dose: 3.12 mg/kg/injection, schedule: Q04DX002 (ip), vehicle: Klucel (hydroxypropylcellulose) (HPC) 109 % of control and 95 % of control | [3] 116 % of control and 89 % of control and 100 % of control | [4] 103 % of control and 104 % of control and 98 % of control

Clc1ccc(C(c2ccccc2Cl)C(Cl)Cl)cc1 (stereo unspecified)
inactive: dose: 25.0 mg/kg/injection, schedule: Q04DX003 (ip), vehicle: saline with Tween-80 110 % of control | dose: 50.0 mg/kg/injection, schedule: Q04DX003 (ip), vehicle: saline with Tween-80 98 % of control | dose: 100.0 mg/kg/injection, schedule: Q04DX003 (ip), vehicle: saline with Tween-80 96 % of control | dose: 200.0 mg/kg/injection, schedule: Q04DX003 (ip), vehicle: saline with Tween-80 104 % of control | [5] 96 % of control

CN(C)CCCNc1ccc(NCCCN(C)C)c2c1C(=O)c1ccccc1C2=O
inactive: dose: 4.0 mg/kg/injection, schedule: Q01DX009 (ip), vehicle: saline 101 % of control | dose: 8.0 mg/kg/injection, schedule: Q01DX009 (ip), vehicle: saline 106 % of control | dose: 16.0 mg/kg/injection, schedule: Q01DX009 (ip), vehicle: saline 100 % of control | dose: 32.0 mg/kg/injection, schedule: Q01DX009 (ip), vehicle: saline 97 % of control

COC(C(=O)C(O)C(C)O)C1CC2C=C3C=C(OC4CC(OC5CC(O)C(OC)C(C)O5)C(OC(C)=O)C(C)O4)C(C)C(=O)C3=C(O)C2=C(O)C1OC1CC(OC2CC(OC3CC(C)(O)C(O)C(C)O3)C(O)C(C)O2)C(O)C(C)O1 (stereo unspecified)
inactive: dose: 0.5 mg/kg/injection, schedule: Q04DX003 (ip), vehicle: saline with Tween-80 100 % of control | dose: 1.0 mg/kg/injection, schedule: Q04DX003 (ip), vehicle: saline with Tween-80 99 % of control | dose: 2.0 mg/kg/injection, schedule: Q04DX003 (ip), vehicle: saline with Tween-80 99 % of control | dose: 4.0 mg/kg/injection, schedule: Q04DX003 (ip), vehicle: saline with Tween-80 96 % of control | dose: 8.0 mg/kg/injection, schedule: Q04DX003 (ip), vehicle: saline with Tween-80 102 % of control

CN(C)/N=N/c1nc[nH]c1C(N)=O
inactive: dose: 25.0 mg/kg/injection, schedule: Q04DX003 (ip), vehicle: carboxymethylcellulose (CMC) 112 % of control | dose: 50.0 mg/kg/injection, schedule: Q04DX003 (ip), vehicle: carboxymethylcellulose (CMC) 120 % of control | dose: 100.0 mg/kg/injection, schedule: Q04DX003 (ip), vehicle: carboxymethylcellulose (CMC) 122 % of control | dose: 240.0 mg/kg/injection, schedule: Q01DX001 (ip), vehicle: Klucel (hydroxypropylcellulose) (HPC) 95 % of control | dose: 400.0 mg/kg/injection, schedule: Q01DX001 (ip), vehicle: Klucel (hydroxypropylcellulose) (HPC) 92 % of control | dose: 400.0 mg/kg/injection, schedule: Q04DX003 (ip), vehicle: carboxymethylcellulose (CMC) 116 % of control | dose: 600.0 mg/kg/injection, schedule: Q01DX001 (ip), vehicle: Klucel (hydroxypropylcellulose) (HPC) 61 % of control

CCOC(=O)CNC(=O)CCCCSc1ncnc2nc[nH]c12
inactive: [5] 104 % of control | dose: 800.0 mg/kg/injection, schedule: Q04DX003 (ip), vehicle: saline with Tween-80 97 % of control | dose: 1600.0 mg/kg/injection, schedule: Q04DX003 (ip), vehicle: saline with Tween-80 88 % of control

CC(=O)OCC(=O)[C@@]12OC(C)(C)O[C@@H]1C[C@H]1[C@@H]3CC(C=O)=C4C=C(OCCCl)CC[C@]4(C)[C@@]3(F)[C@@H](O)C[C@@]12C
inactive: dose: 0.39 mg/kg/injection, schedule: Q04DX002 (ip), vehicle: Klucel (hydroxypropylcellulose) (HPC) 94 % of control | [1] 89 % of control | [2] 93 % of control | dose: 3.13 mg/kg/injection, schedule: Q04DX002 (ip), vehicle: Klucel (hydroxypropylcellulose) (HPC) 95 % of control | [3] 91 % of control | [4] 88 % of control

Cc1ncc([N+](=O)[O-])n1CCO
inactive: dose: 37.5 mg/kg/injection, schedule: Q04DX003 (ip), vehicle: Klucel (hydroxypropylcellulose) (HPC) 114 % of control | dose: 75.0 mg/kg/injection, schedule: Q04DX003 (ip), vehicle: Klucel (hydroxypropylcellulose) (HPC) 118 % of control | dose: 150.0 mg/kg/injection, schedule: Q04DX003 (ip), vehicle: Klucel (hydroxypropylcellulose) (HPC) 106 % of control | dose: 300.0 mg/kg/injection, schedule: Q04DX003 (ip), vehicle: Klucel (hydroxypropylcellulose) (HPC) 109 % of control | dose: 600.0 mg/kg/injection, schedule: Q04DX003 (ip), vehicle: Klucel (hydroxypropylcellulose) (HPC) 108 % of control

CC1(CO)C(O)CCC2(C)C1C(O)CC1CC3CC12CCC3(O)CO (stereo unspecified)
inactive: dose: 12.5 mg/kg/injection, schedule: Q04DX002 (ip), vehicle: distilled water + Tween-80 120 % of control | dose: 50.0 mg/kg/injection, schedule: Q04DX002 (ip), vehicle: distilled water + Tween-80 98 % of control | dose: 100.0 mg/kg/injection, schedule: Q04DX002 (ip), vehicle: distilled water + Tween-80 110 % of control | dose: 200.0 mg/kg/injection, schedule: Q04DX002 (ip), vehicle: distilled water + Tween-80 103 % of control
